The subject of test [1] is SW620 tumor organoids. Nature of the test: Synergy studies with SN38 (LOEWE synergy scores). The test is classed as cell-based, human. The arrangement: key to LOEWE Synergy Score: % response beyond expectation; <-10 antagonism, -10–10 additive, >10 synergy. Particulars: for LOEWE Synergy Score: compound at its IC50 (6: 5 μM; 6.3, 6.11: 3 μM). As to the method:
Cell based cytotoxicity dose response and combination studies. […] Plates were then incubated for 3 days before treatment.
(e.g., synergy score 20 corresponds to 20% of response beyond expectation). According to our experience, the synergy scores near 0 gives limited confidence on synergy or antagonism.
When the synergy score is: • Less than −10: the interaction between two drugs is likely to be antagonism; • From −10 to 10: the interaction between two drugs is likely to be additivity; • Larger than 10: the interaction between two drugs is likely to be synergy.

The test system of test [2] is SW620 tumor organoids. Briefly: Tumor organoid cytotoxicity (CellTiter-Glo 3D). To be noted: Homo sapiens.
Test [3] relates to vimentin promoter activity. Briefly: VimPro-GFP reporter 3D high-content imaging in tumor organoids. Format: cell-based, human. Particulars: 72 h. As to the method: After validating hits 5-7 against CHD1L mediated TCF transcription, the ability of these compounds to reverse EMT and other malignant properties in CRC were evaluated. E-cadherin and vimentin are putative biomarkers for the epithelial and mesenchymal phenotypes, respectively. [McDonald et al., 2015] Loss of E-cadherin and gain of vimentin are also clinical biomarkers of poor prognosis. [Yun et al., 2014; Richardson et al., 2012; Dhanasekaran et al., 2001; Kashiwagi et al., 2010; Toiyama et al., 2013] Accordingly, lentiviral promoter driven reporters for E-cadherin (pCDH1-EcadPro-RFP) and vimentin (pCDH1-VimPro-GFP) were developed, which faithfully report E-cadherin and vimentin protein expression, respectively. [Zhou et al., 2016; Abraham et al., 2019] SW620 cells transduced with either EcadPro-RFP or VimPro-GFP were cultured as tumor organoids for 72 h, reaching a diameter of 600 μm. Tumor organoids were treated with compounds 5-7 for an additional 72 h to determine the effective concentration 50 percent (EC50) for modulating promoter activity. Changes in promoter expression was quantified using a 3D confocal image […] based high-content analysis algorithm (FIG. 2A-2B). [Zhou et al., 2016; Abraham et al., 2019]
Stable VimPro-GFP or EcadPro-RFP SW620 reporter cells were generated using pCDH imPro-GFP-EF1-puro virus or pCDH-EcadPro-mCherry-EF1-puro virus as previously reported. [Zhou et al., 2016; Abraham et al., 2019] The stable fluorescently labeled reporter cells were used to generate tumor organoids as described herein. Tumor organoids were treated with CHD1L inhibitors at 10 μM for an additional 72 h. Following treatment, tumor organoids were stained with 16 μM of Hoechst 33342 for 1 h (nuclei stain). Images were taken with a 5× air objective. Z-stacks were set at 26.5 μm apart for a total of 15 optical slices. Imaging and high-content analysis were performed using an Opera Phenix™ and Harmony® software (PerkinElmer, Hopkinton, Mass.). Nuclei were identified within each layer and cells were found with either GFP or mCherry channel. The fluorescence intensities of each channel were calculated and thresholds were set based on the background intensities. Percentages of GFP or mCherry RFP positive cells were calculated and normalized to the DMSO treated group.
3D High-Content Imaging and Analysis of EMT Dual-Reporter Activity. Tumor organoids were imaged using the Opera Phenix high-content screening system (PerkinElmer) in confocal mode utilizing a 10× air objective (NA 0.3). […] Organoids were also imaged in Brightfield to segment and perform high-content analysis of dual reporter specific fluorescence intensity. […] Both fluorescent signals were quantified and normalized as previously described. […]

Where [4] appears, read: SW-620, read-out: Tumor Organoid Cytotoxicity IC50 (μM) SW620.

As a reminder, the IC50 is the concentration that inhibits the measured activity by half. Usually EC50 stands for the concentration needed to bring the measured effect to its halfway point.

Read-outs that look alike come from different tables or passages of the source.

Turning to `Cc1cc(Nc2ccc(NC(=O)c3c[nH]c4ccccc34)cc2)nc(N2CCCC2)n1` [Compound 6.3, N-(4-((6-methyl-2-(pyrrolidin-1-yl)pyrimidin-4-yl)amino)phenyl)-1H-indole-3-carboxamide], the “LOEWE Synergy Score” value in test [1] (SN38 0.64 nM) is reported as 4; in test [1] (SN38 16 nM), 36; in test [1] (SN38 80 nM), 54; in test [1] (SN38 400 nM) it was 48; in test [1] (SN38 2000 nM), 35; in test [1] (SN38 10000 nM), 25. In addition, the “LOEWE Synergy Score” value in test [1] (SN38 […]) amounted to 31. For the same compound, the “potency of SN38 combination relative to SN38 alone” value in test [1] (killing SW620 tumor organoids) turned out to be 150 fold. Also, in test [1] (killing SW620 tumor organoids), the “synergism with irinotecan (and SN38), in words” value is “synergism”. The IC50 came out at 3.6 µM in test [2] (SW-620, 72 h, read-out: 3 D Cytotoxicity 72 hr IC50 (μM) SW620) and 3.8 µM in test [2] (setting [4]). The “downregulation of vimentin promoter activity (VimPro-GFP), in words” value in test [3] (SW620 or HCT116 tumor organoids) is listed as “downregulation of vimentin”.
As to `Cc1cc(Nc2ccc(NC(=O)Cc3cccs3)cc2)nc(N2CCCC2)n1` [Compound 6, N-(4-((6-methyl-2-(pyrrolidin-1-yl)pyrimidin-4-yl)amino)phenyl)-2-(thiophen-2-yl)acetamide], the “LOEWE Synergy Score” value in test [1] (SN38 0.64 nM) is −5; in test [1] (SN38 16 nM), 35; in test [1] (SN38 80 nM), 45; in test [1] (SN38 400 nM), 41; in test [1] (SN38 2000 nM), 28; in test [1] (SN38 10000 nM), 16. Further, the “LOEWE Synergy Score” value in test [1] (SN38 […]) came to 36. The “synergism with irinotecan (and SN38), in words” value in test [1] (killing SW620 tumor organoids) is on record as “synergism”. Further, the IC50 in test [2] (setting [4]) came out at 4.6 µM.
Consider `COc1ccc(-c2nc(S(=O)(=O)c3ccccc3)c(S(C)(=O)=O)o2)cc1` [Compound 5], for which the EC50 in test [3] (Homo sapiens, SW-620, read-out: EC50 downregulation of vimentin promoter activity, SW620 tumor organoids) was found to be 15.6 ± 1.7 µM.

The values above are taken from patent US20230103444A1 (The Regents of the University of Colorado, a Body Corporate, priority 2020, published 2023).
